“Also recorded” adds a separate entry of the source. Where two headings read alike, the source gives them in different places.
Tests used:
[1] = biological target: T1, serotonin-1A receptor (5-HT1A) (Rattus norvegicus, UniProt P19327); test: biochemical; format: binding, rat (Sprague-Dawley); settings: for Ratio Beta IC50 / 5-HT1A IC50: selectivity for 5-HT1A over beta receptor, Beta IC50 from 3H-dihydroalprenolol binding
T1 sequence (P19327 1-422): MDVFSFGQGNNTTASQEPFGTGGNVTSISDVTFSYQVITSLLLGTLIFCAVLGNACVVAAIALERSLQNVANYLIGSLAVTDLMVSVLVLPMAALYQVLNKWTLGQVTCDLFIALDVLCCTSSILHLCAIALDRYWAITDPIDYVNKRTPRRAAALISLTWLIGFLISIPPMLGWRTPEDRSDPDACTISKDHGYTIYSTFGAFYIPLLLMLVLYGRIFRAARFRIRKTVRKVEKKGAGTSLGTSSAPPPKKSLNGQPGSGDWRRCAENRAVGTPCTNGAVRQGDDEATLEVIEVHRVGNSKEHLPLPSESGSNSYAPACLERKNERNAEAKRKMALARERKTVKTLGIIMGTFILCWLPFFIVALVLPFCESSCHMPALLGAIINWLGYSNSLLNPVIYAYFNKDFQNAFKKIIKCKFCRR
Procedure: The compounds of this invention were evaluated in the following tests systems.
(§1) Procedure for radioligand receptor assays--Male Sprague-Dawley rats weighing 110-150 g were decapitated and brains were immediately removed. Bovine brains were quickly removed from calf in the slaughterhouse. Cerebral cortices were dissected out at 4° C. and homogenized in 0.32M sucrose. After centrifugation at 1000×g for 10 minutes and then 17,000×g for 20 minutes, a crude synaptosomal fraction was sedimented. The pellet was suspended in 100 volumes of 50 mM tris-HCl buffered at pH 7.4, incubated at 37° C. for 10 minutes, and centrifuged at 50,000×g for 10 minutes. The process was repeated and the final pellet was suspended in ice-chilled 50 mM tris-HCl buffered at pH 7.4.
Binding of ^3 H-8-hydroxy-2- (di-n-propylamino) tetralin(3H-80HDPAT) to serotonin-1A receptor was performed according to the method described by Wong et al., J. Neural Transm. , 71, 207 (1988). Cortical membranes (300 μg protein) isolated from rat brain were incubated at 28 C for 30 minutes in 2 ml of medium containing 50 mM tris-HCl buffered at pH 7.4; 10 μM pargyline; 0.6 mM ascorbic acid; 5 mM calcium chloride; 0.4 nM 3H-8OHDPAT; and various concentrations of test compound. Binding was terminated by filtering samples under reduced pressure through glass fiber (GFB) filters. The filters were washed twice with 5 ml of ice cold buffer and placed in scintillation vials with 10 ml of PCS (Amlersham/Searle) scintillation fluid. Radioactivity was measured with a liquid scintillation spectrometer. Specific binding of 3H-80HDPAT is defined as the difference of radioactivity bound in the absence and in the presence of 10 μM spiperone.

β-adrenergic receptors = test: Binding of 3H-dihydroalprenolol to β-adrenergic receptors, calf brain cortical membranes; parameters: species or system bovine (calf); settings: inhibition of 2 nM 3H-dihydroalprenolol binding, 20° C, 20 minutes, pH 7.4, read-out: Beta IC50
Procedure: as §1, with “The compounds of this invention were evaluated in the following tests systems. Procedure” for “Procedure”, “7.4. […] Cortical membranes (500 μg protein) of calf brain were incubated at 20° C. for 20 minutes in 2 ml of medium containing […] tris-HCl buffered at pH 7.4; 2 nM 3H-dihydroalprenolol; and various concentrations of test compound. Binding was terminated by filtering samples through glass fiber (GFC) filters. […] Other conditions were as described for 3[…] binding.” for “7.4.”

[2] = test system: 5-HT1A and 5-HT1B receptors; settings: background knowledge; cited from earlier work
[3] = inhibition of 0.4 nM 3H-8OHDPAT binding, rat cortical membranes, 28 C, 30 minutes, pH 7.4

Structure (SMILES) | IC50 [1, 3] [nM] | Ratio Beta IC50 / 5-HT1A IC50 [1] | IC50 (β-adrenergic receptors) [nM] | IC50 [1] [nM] | antagonism of 5-HT1 receptors relative to β-block (in words) [2]
OC(CN[C@H]1CC[C@H](c2ccccc2)CC1)COc1cccc2ccccc12 (stereo partly drawn) [(E-4-phenylcyclohexyl)] | > 1000 | < 0.26 | 264 |  | 
O=C(O)C(=O)O.OC(CNC1CCCCCC1)COc1cccc2ccccc12 (stereo not drawn) [(cycloheptyl), 1-(1-Naphthalenoxy) -3-(cycloheptylamino) -2-propanol ethanedioate] |  | 99 | 2280 | 23 | 
O=C(O)C(=O)O.OC(CNC1CCCCCCC1)COc1cccc2ccccc12 (stereo not drawn) [(cyclooctyl), 1-(1-Naphthalenoxy)-3-(cyclooctylamino) -2-propanol ethanedioate] |  | 22.2 | 1000 | 45 | 
C=CC(C)(C)NCC(O)COc1cccc2ccccc12 (stereo not drawn) [C(CH3)2 CHCH2] | 100 | 1.24 | 124 |  | 
CCCC(C)(C)NCC(O)COc1ccccc1C1CCCC1.O=C(O)C(=O)O (stereo not drawn) [CH(CH3)2 CH2 CH2 CH3, 1-(2-Cyclopentylphenoxy)-3-(1,1-dimethylbutylamino) -2-propanol ethanedioate] |  | 2.5 | 16 | 6.5 | 
C#CC(C)NCC(O)COc1cccc2ccccc12 (stereo not drawn) [CH(CH3)CCH] | 180 | 7.1 | 1270 |  | 
COCC(C)NCC(O)COc1cccc2ccccc12 (stereo not drawn) [CH(CH3)CH2 OCH3] | 147 |  | 65 |  | 
O=C(O)/C=C\C(=O)O.OC(CNC1CCCCC1)COc1cccc2[nH]ccc12 (stereo not drawn) [Cyclohexyl, 1-(4-Indolyloxy)-3-(cyclohexylamino)-2-propanol maleate] | 10.3 | 5.4 | 56 |  | 
O=C(O)C(=O)O.OC(CNC1CCCCCC1)COc1ccccc1C1CCCC1 (stereo not drawn) [cycloheptyl, 1-(2-Cyclopentylphenoxy)-3-(cycloheptylamino) 2-propanol ethanedioate] |  | 16 | 48 | 3 | 
O=C(O)C(=O)O.OC(CNC1CCCCCCC1)COc1ccccc1C1CCCC1 (stereo not drawn) [cyclooctyl, 1-(2-Cyclopentylphenoxy) -3-(cyclooctylamino) 2-propanol ethanedioate] |  | > 200 | > 1000 | 5 | 
CC(C)NCC(O)COc1cccc2[nH]ccc12 (stereo not drawn) [pindolol] |  |  |  |  | at concentrations far in excess of those shown to block the β-receptor; also recorded: not selective agents for the serotonin receptor due to their β-blocking activities

Further compounds by falling IC50 [1, 3], results first:

IC50 [1, 3] [nM] | Ratio Beta IC50 / 5-HT1A IC50 [1] | IC50 (β-adrenergic receptors) [nM] | Structure (SMILES) | IC50 [1] [nM] | antagonism of 5-HT1 receptors relative to β-block (in words) [2]
88 | 15.4 | 1360 | C#CC(C)(C)NCC(O)COc1cccc2ccccc12 (stereo not drawn) [C(CH3)2 CCH] |  | 
77 | 1.3 | 97.3 | CC(C)(C)NCC(O)COc1cccc2ccccc12 (stereo not drawn) [C(CH3)3] |  | 
73 | 9.4 | 683 | CC(C)CNCC(O)COc1cccc2ccccc12 (stereo not drawn) [CH2 CH(CH3)2] |  | 
73 | 1.4 | 104 | CCC(C)NCC(O)COc1cccc2ccccc12 (stereo not drawn) [CH(CH3)CH2 CH3] |  | 
63 | 4.8 | 313 | OC(CNCCc1ccccc1)COc1cccc2ccccc12 (stereo not drawn) [CH2 CH2 C6 H5] |  | 
53 | 20 | 1050 | CCC(C)(C)NCC(O)COc1cccc2ccccc12 (stereo not drawn) [C(CH3)2 CH2 CH3] |  | 
49 | 2.8 | 138 | OC(CNC1CCCC1)COc1cccc2ccccc12 (stereo not drawn) [(cyclopentyl)] |  | 
41 | 2.4 | 98 | CCCC(C)(C)NCC(O)COc1cccc2ccccc12 (stereo not drawn) [C(CH3)2 CH2 CH2 CH3] |  | 
38 | 10.5 | 398 | CC#CC(C)(C)NCC(O)COc1cccc2ccccc12 (stereo not drawn) [C(CH3)2 CCCH3] |  | 
36.9 | 3.4 | 124 | CCCCNCC(O)COc1cccc2ccccc12 (stereo not drawn) [CH2 CH2 CH2 CH3] |  | 
34.1 | 13 | 442 | OC(CN[C@H]1CC[C@@H](c2ccccc2)CC1)COc1cccc2ccccc12 (stereo partly drawn) [(Z-4-phenylcyclohexyl)] |  | 
33.4 | 5.2 | 174 | CC1CCCCC1NCC(O)COc1cccc2ccccc12 (stereo not drawn) [(2-methylcyclohexyl)] |  | 
23.4 | 7.9 | 185 | CCCCCNCC(O)COc1cccc2ccccc12 (stereo not drawn) [CH2 CH2 CH2 CH2 CH3] |  | 
16.8 | 15.2 | 225 | CC(C)(C)C(C)(C)NCC(O)COc1cccc2ccccc12 (stereo not drawn) [C(CH3)2 C(CH3)3] |  | 
15.4 | 40.4 | 622 | OC(CNC1CCCCC1)COc1cccc2ccccc12 (stereo not drawn) [(cyclohexyl)] |  | 
5 | 1.4 | 7 | OC(CNC1CCCC1)COc1ccccc1C1CCCC1 (stereo not drawn) [cyclopentyl] |  | 
